The source of these data is US8119339B2, “Heteroduplex tracking assay” (priority 2000, dated 2012).

Where “and” joins values, the source holds several entries; their conditions need not be identical. Equal values may be shown once.

The test system of one assay is CD4+ cells. Put plainly: CD4+ cell count in women before and after antiretroviral therapy. The class given is in vivo, human. Conditions: Status before combination therapy, single patient, on the listed anti-HIV therapy.
For assay [1], the system named is HIV-1 strains using CCR5 versus CXCR4. In words: QXR, proportion of patient HIV-1 using CCR5. The class given is in vivo, human. Conditions: Status before combination therapy, single patient, on the listed anti-HIV therapy. As to the method: To quantitate HIV-1 coreceptor use, inventors constructed a variable, λ, as the proportion of strains using CCR5. This variable has since been renamed QXR. […] QXR values were assessed by utilizing qualitative assay data derived from primary isolates, biologic clones, and sequences of the V3 portion of the env gene. […] Thus, for the vast majority of virions, each virion uses either CCR5 or CXCR4. This relationship can be stated as a mixture
D=QXR(CCR5)+(1−QXR)(CXCR4); 0≦QXR≦1, where D is the distribution of viral phenotypes. By design, it is a binomial population.
QXR values were constructed by relating data derived from the same patient sample by using three different analyses: biologic cloning, V3 sequencing of patient-derived molecular clones, and qualitative assays of primary isolates. To construct QXR values, inventors first calculated the proportion of biologic and, if available, molecular clones using CCR5 at each time point, then linked the proportion to the qualitative coreceptor use score (− to 3+) of primary isolates obtained simultaneously. Data that were not available were interpolated. […]
The large number of biologic and molecular clones permitted derivation of a system to quantitate the proportion of virus in a clinical specimen that uses each coreceptor. […] By applying this method, it was determined the proportion of virus using each coreceptor for each patient over time. […]

For assay [2], the system named is V3 region of the env gene. In words: Coreceptor use predicted from V3 loop sequences of plasma HIV-1 RNA molecular clones. Conditions: number of molecular clones of virion-derived plasma HIV-1 RNA. From the text:
HIV-1 virions were isolated from plasma samples as described (Fang et al. (1996) J. AIDS Hum. Retro. 12:352-7). Reverse transcriptase polymerase chain reaction amplification produced a 920-bp amplicon spanning the V3 region of the env gene. Reaction conditions were controlled rigorously to minimize recombination and other artifacts (Fang et al. (1996)). Amplified products were cloned into a TOPO™ TA vector (Invitrogen, Carlsbad, Calif.), verified by restriction digestion, and sequenced. Alignment of the sequences was initially done using the PILEUP program in the GCG Suite (Genetics Computer Group, Madison, Wis.), then checked manually. Envelope sequences were used to predict coreceptor use on the basis of the overall charge of the V3 loop and the presence of basic or acidic residues at positions […] (Bhattacharyya et al. (1996); and Hung et al. (1999)).
These sequences predicted a pattern of coreceptor use that essentially paralleled the one obtained by using viral culture (Table 2B, Coreceptor use determined by cocultivation of PBMCs vs. sequence analysis of plasma HIV-1 RNA). […] At each time point, coreceptor use was assayed by co-cultivating PBMCs and determining the V3 loop sequence of virion-derived HIV-1 RNA.

For the next assay, the system named is HIV-1. Conditions: Status before combination therapy, single patient, on the listed anti-HIV therapy.
Assay [3] deals with GHOST.CCR5 and GHOST.CXCR4 indicator cells (R5-tat, X4-tat). Put plainly: Rapid Cell Fusion Assay for coreceptor utilization (CAT-ELISA). The class given is cell-based. Conditions: cloned patient env gene expressed on HL3T1 cells, fusion for 48 hours. The text has this: Viral coreceptor usage was separately evaluated through the use of a Rapid Cell Fusion Assay. This assay enables determination of coreceptor usage from cloned HIV env gene sequences obtained directly from patient samples (e.g. blood, mucosal tissue). This method allows for greater efficiency in determination of viral coreceptor usage, by circumventing the need for cultivation of primary isolates. The Rapid Cell Fusion Assay can advantageously produce a result within one week after obtaining a patient sample. In addition, the Rapid Cell Fusion Assay allows study of patient-derived virus obtained from sites other than the peripheral blood, particularly those sites from which cultured virus cannot be obtained. For example, while circulating macrophages and CD4^+ T cells are the dominant reservoir of HIV-1, viral populations distinct from those in the peripheral blood exist in many reservoirs, including the genital tract.
The HL3T1 cell line was derived by stable transfection of parental HeLa cells with a chloramphenicol acetyltransferse (CAT) reporter construct containing a CAT gene is linked to an HIV-1 LTR promoter. The HL3T1 cells produce CAT protein only upon introduction of an active HIV-1 Tat protein. HL3T1 cells were transfected with a cloned env gene derived from a patient of interest. The cloned env gene product is expressed on the surface of the HL3T1 cells.
Indicator cell lines GHOST.CCR5 and GHOST.CXCR4 (respectively hereinafter “R5-tat” and “X4-tat”) cells were transfected with pSV2tat72, a construct expressing high levels of HIV-1 Tat under the control of the SV40 early promoter.
HL3T1 cells containing a cloned patient env gene were fused to R5-tat and X4-tat cells. Cell surface envelope protein variants will selectively interact with either CCR5 or CXCR4. Fusion only occurs when an HL3T1 envelope protein interacts with an indicator cell expressing a compatible coreceptor. Therefore, HL3T1 cells will fuse with either R5-tat and X4-tat, depending on the patient's env gene specificity. To initiate fusion, transfected HL3T1 and R5-tat or X4-tat cells were mixed in 6-well plates at 37° C. and allowed to fuse for 48 hours. To quantitate fusion, the cells were lysed with 0.5% NP-40. Fusion of HL3T1 cells to R5-tat or X4-tat activated CAT gene expression. Aliquots of the cell lysates were monitored for CAT production using a commercially available kit (CAT-ELISA, Boehringer Mannheim).
Twenty-five clones from each sample were analyzed to ensure that the fusion assay reflected the heterogeneous nature of HIV-1 populations.
(In an ELISA, binding on a coated surface is turned into a signal by an enzyme label.)

Description for CD4+ cells: Coreceptor use was examined in twenty-two women who participated in two prospective studies of HIV-1 infection. Nineteen were enrolled in the Bronx-Manhattan site of Women's Interagency HIV Study (WIHS), a National Institutes of Health (NIH) multicenter study of the natural history of HIV-1 infection in women. Three took part in a study of HIV-1 pathogenesis performed at the Wadsworth Center of the New York State Department of Health in Albany, N.Y. Both studies included individuals with a broad spectrum of HIV-1 disease. The institutional review boards at each clinical site and the New York State Department of Health approved the investigation. Each woman provided informed consent at enrollment.
To examine the effect of combination antiretroviral therapy on HIV-1 coreceptor use, women infected with CXCR4 strains were sought.
At that time, eight women were receiving antiretroviral therapy, primarily zidovudine monotherapy. While under study, however, 12 initiated new combination regimens; 9 received HAART (Group I) and 3 received two or more nucleoside analogues (Group II). […] In Table 1, “Before therapy” refers to data obtained at the visit immediately preceding initiation of new two or three drug antiretroviral therapy in Groups I & II. For Group III, data from the first time point are shown (a). “Follow-up” refers to data obtained at the first time point following the initiation of the anti-HIV therapy listed for Groups I & II.

Turning to `Cc1cn([C@H]2C[C@H](N=[N+]=[N-])[C@@H](CO)O2)c(=O)[nH]c1=O` [AZT, zidovudine], the “CD4+ count, cells per mm3” value with CD4+ cells was 188 cells per mm3 and 42 cells per mm3 and 259 cells per mm3 and 307 cells per mm3 and 43 cells per mm3. The “QXR, proportion of HIV-1 Using R5” value in assay [1] is 0.36 (2×) and 0.90 and 0.00 (2×). In addition, in assay [2], the “Distribution of Co-Receptor Use Predicted by V3 Loop Sequences, CCR5” value is on record as 9 and the “Distribution of Co-Receptor Use Predicted by V3 Loop Sequences, CXCR4” value was 4. Also, in the assay on HIV-1, the “HIV-1 RNA, log copies per ml” value was 5.30 log copies per ml and 4.94 log copies per ml and 5.58 log copies per ml and 5.04 log copies per ml and 5.23 log copies per ml.

As to `Cc1cn([C@H]2C=C[C@@H](CO)O2)c(=O)[nH]c1=O` [d4T, stavudine], the “CD4+ count, cells per mm3” value in the assay on CD4+ cells is given as 9 cells per mm3. Moreover, the “QXR, proportion of HIV-1 Using R5” value in assay [1] is 0.36. The “HIV-1 RNA, log copies per ml” value with HIV-1 is listed as 5.28 log copies per ml.

Regarding “........RKSVHIGPGQAFYATGDIIGNIRKAHC [AF3P-2]”, the CORECEPTOR result in assay [3] is recorded as “negative”.

Consider “CIRPNNNTRQSVHIGPGQALYTTEIIGDIRKAHC [AF7P-9]”, for which, in assay [3], the CORECEPTOR result was “CCR5”. As for “CIRPNNNTRTSIRIGPGQAFYATGNIIGDIRQAYC [AF2P12-12]”, the CORECEPTOR result in assay [3] is “CCR5”. The same measure, in the same setting: as for “CIRPNNNTRTSIRIGPGQAFYATGNIIGGIRQAYC [AF2P12-2]”, the entry is “CCR5”; as for “CIRPNNNTRTSIRIGPGQAFYATGNIVGDIRQAYC [AF2P12-11]”, “CCR5”; as for “CIRPNNNTRTSIRIGPRQAFYATGNIIGDIRQAYC [AF2P12-10]”, “CXCR4”. Same read-out and setting: with “CTRPINNRRKSIHIGPGQAFYGT.DDIIGDIRQAHC [AF6P-10]” the entry was “CCR5”; with “CTRPINNRRKSIHMGPGQAFYGT.DDIIGDIRKARC [AF6P-1]”, “CCR5”. Still for that read-out and setting: with “CTRPNDNIRKRVHIGPGQAFYATGDVIGDIRRAHC [AF10P97-4]” the entry was “CXCR4”. Consider “CTRPNDNIRKSVHIGPGQAFYATGDIIGDIRRAHC [AF10P97-2]”, for which, in assay [3], the CORECEPTOR entry was “CCR5”. Regarding “CTRPNNNTITSIRIGPGQAFYATGSIIGNIRQAHC [AF9P2-3]”, the CORECEPTOR entry in assay [3] is “CCR5”. The same measure, in the same setting: as for “CTRPNNNTITSIRIGPGQAFYATGSIIGNTRQAHC [AF9P2-4]”, the entry is “CCR5”; as for “CTRPNNNTKKSVHIGPGQAFYATGDIIGDIRQAYC [AF5P-6]”, “CCR5”; as for “CTRPNNNTRKSVHIGLGQAFYATGDIIGNIRKAHC [AF3P-9]”, “CCR5”. The same measure, in the same setting: as for “CTRPNNNTRKSVHIGPGQAFYATGDIIGDIRQAYC [AF5P-5]”, the entry is “CCR5”; as for “CTRPNNNTRKSVHIGPGQAFYATGDIIGNIRKAHC [AF3P-4]”, “CCR5”; as for “CTRPNNNTRKSVHIGPGQAFYATGDIIGNIRQAHC [AF3P-6]”, “CCR5”.

Consider “CTRPNNNTRKSVHIGPGQAFYATGDIIGNMRKAHC [AF3P-12]”, for which, in assay [3], the CORECEPTOR result is recorded as “CCR5”.

As for “CTRPNNNTRKSVHIGPGQAFYATGDILGNIRQAHC [AF3P-11]”, in assay [3], the CORECEPTOR entry is recorded as “CCR5”. On the same count and under the same terms, as for “CTRPSNNRRKSIHKGDQDKHSMEHDDVIGDIRKARC [AF6P-7]”, the entry is “negative”; as for “CTRPSNNRRKSIHMGPGQAFYGT.DDIIGDIRKARC [AF6P-12]”, “CCR5”. The same measure, in the same setting: with “CTRPSNNRRKSIHMGPGQAFYGT.DDIIGGIRKARC [AF6P-11]” the entry was “CCR5”.
